Measurements: US6603044B1, “Phthalamide derivatives, or salt thereof agrohorticultural insecticide, and method for using the same” (Nihon Nohyaku Co., Ltd., priority 1998, dated 2003)

Columns and labels:
[1] = tested on: Smaller tea Tortrix (Adoxophyes sp.); experiment: Insecticidal effect on smaller tea tortrix (Test Example 3); assay type: in vivo; conditions: 50 ppm; tea leaf immersed 30 seconds; larvae; 25° C., humidity 70%; eight days after the inoculation
Experimental: Insecticidal Effect on Smaller tea Tortrix (Adoxophyes sp.)
A leaf of tea tree was immersed for 30 seconds in a liquid chemical containing each compound listed in Table 1, 2 or 3 as an active ingredient to adjust the concentration to 50 ppm. After air-dryness, the leaf was transferred to a plastic dish with a diameter of 9 cm and inoculated with larval smaller tea tortrix. Then, the leaf was allowed to stand in a room thermostatted at 25° C. at a humidity of 70%. Eight days after the inoculation, the dead and alive were counted, and the insecticidal effect was judged according to the same criterion as mentioned in Test Example 1. The test was carried out with triplicate groups of 10 insects.

[2] = tested on: Diamond Back Moth (Plutella xylostella); experiment: Insecticidal effect on diamond back moth (Test Example 1); assay type: in vivo; conditions: 50 ppm; Chinese cabbage seedling with deposited eggs immersed about 30 seconds; 25° C.; six days after the immersion
From the text: Insecticidal Effect on Diamond Back Moth (Plutella xylostella)
Adult diamondback moths were released and allowed to oviposit on a Chinese cabbage seedling. Two days after the release, the seedling having the eggs deposited thereon was immersed for about 30 seconds in a liquid chemical prepared by diluting a preparation containing each compound listed in Table 1, 2 or 3 as an active ingredient to adjust the concentration to 50 ppm. After air-dryness, it was allowed to stand in a room thermostatted at 25° C. Six days after the immersion, the hatched insects were counted. The mortality was calculated according to the following equation and the insecticidal effect was judged according to the criterion shown below. The test was carried out with triplicate groups of 10 insects.

SMILES	Test Example 3 insecticidal effect (mortality) [1]	Test Example 1 insecticidal effect (mortality) [2]
Cc1cc(C(F)(C(F)(F)F)C(F)(F)F)ccc1NC(=O)c1cccc(I)c1C(=O)NC(C)CSc1nccs1 (stereo not shown) [compound 352]	A (100)	A (100)
Cc1cc(C(F)(C(F)(F)F)C(F)(F)F)ccc1NC(=O)c1cccc(I)c1C(=O)NC(C)(C)CSCc1ccc(Cl)cc1 [compound 451]	A (100)	A (100)
CSCC(C)NC(=O)c1c(C(=O)Nc2ccc(OC(F)(F)F)cc2C)ccc(F)c1F (stereo not shown) [compound 44]	A (100)	A (100)
CSC1CCCCC1NC(=O)c1c(I)cccc1C(=O)Nc1ccc(C(F)(C(F)(F)F)C(F)(F)F)cc1C (stereo not shown) [compound 273]	C (89-80)	A (100)
Cc1cc(C(F)(C(F)(F)F)C(F)(F)F)ccc1NC(=O)c1ccc2ccccc2c1C(=O)NC(C)C[S+](C)[O-] (stereo not shown) [compound 334]	A (100)	A (100)
Cc1cc(OC(F)(F)F)ccc1NC(=O)c1cccc(I)c1C(=O)NC(C)CSC1CCCCC1 (stereo not shown) [compound 82]	A (100)	A (100)
CSCC(C)NC(=O)c1ccc(I)cc1C(=O)Nc1ccc(C(F)(F)C(F)(F)F)cc1C (stereo not shown) [compound 111]	B (99-90)	A (100)
CCS(=O)(=O)CCCC(C)NC(=O)c1c(Br)cccc1C(=O)Nc1ccc(C(F)(C(F)(F)F)C(F)(F)F)cc1C (stereo not shown) [compound 215]	A (100)	A (100)
CSCC(C)(C)NC(=O)c1c(I)cccc1C(=O)Nc1ccc(Oc2ccc(Cl)cc2)cc1C [compound 473]	B (99-90)	A (100)
CCCCSCC(C)NC(=O)c1c(I)cccc1C(=O)Nc1ccc(C(F)(F)C(F)(F)F)cc1C (stereo not shown) [compound 64]	A (100)	A (100)
CSCC1(NC(=O)c2c(I)cccc2C(=O)Nc2ccc(C(F)(C(F)(F)F)C(F)(F)F)cc2C)CCCC1 [compound 445]	A (100)	A (100)
CSCC(NC(=O)c1c(I)cccc1C(=O)Nc1ccc(C(F)(F)C(F)(F)F)cc1C)c1ccccc1 (stereo not shown) [compound 90]	A (100)	A (100)
Cc1cc(C(F)(C(F)(F)F)C(F)(F)F)ccc1NC(=O)c1cccc(I)c1C(=O)NC(C)CSC(C)(C)C (stereo not shown) [compound 117]	A (100)	A (100)
CSCC(C)NC(=O)c1c(C(=O)Nc2ccc(C(F)(F)C(F)(F)F)cc2C)cccc1[N+](=O)[O-] (stereo not shown) [compound 105]	A (100)	A (100)
CSC1CCCC1NC(=O)c1c(I)cccc1C(=O)Nc1ccc(C(F)(C(F)(F)F)C(F)(F)F)cc1C (stereo not shown) [compound 329]	A (100)	A (100)
CSCC(C)(C)NC(=O)c1c(C(=O)Nc2ccc(OC(F)(F)F)cc2C)ccc2c1OCO2 [compound 252]	A (100)	A (100)
CCS(=O)(=O)CCCCC(C)NC(=O)c1c(I)cccc1C(=O)Nc1ccc(C(F)(C(F)(F)F)C(F)(F)F)cc1C (stereo not shown) [compound 180]	A (100)	A (100)
CSCCCNC(=O)c1c(I)cccc1C(=O)Nc1ccc(C(F)(C(F)(F)F)C(F)(F)F)cc1C [compound 57]	A (100)	A (100)
CCC(Oc1ccc(NC(=O)c2cccc(I)c2C(=O)NC(C)CSC)c(C)c1)=C(C(F)(F)F)C(F)(F)F (stereo not shown) [compound 46]	A (100)	A (100)
Cc1cc(C(F)(C(F)(F)F)C(F)(F)F)ccc1NC(=O)c1cccc(I)c1C(=O)NC(C)C[S+]([O-])c1nc2ccccc2s1 (stereo not shown) [compound 344]	A (100)	A (100)
CSCC(C)NC(=O)c1c(C(=O)Nc2ccc(Oc3ncc(C(F)(F)F)cc3Cl)cc2C)cccc1[N+](=O)[O-] (stereo not shown) [compound 224]	A (100)	A (100)
CSCC(C)(C)NC(=O)c1c(I)cccc1C(=O)Nc1ccc(C(O)c2ccc(Cl)cc2)cc1C (stereo not shown) [compound 472]	A (100)	A (100)

SMILES	Test Example 3 insecticidal effect (mortality) [1]	Test Example 1 insecticidal effect (mortality) [2]
CSCCC(C)NC(=O)c1c(I)cccc1C(=O)Nc1ccc(OC(F)(F)F)cc1C (stereo not shown) [compound 164]	A (100)	A (100)
Cc1cc(OC(F)(F)F)ccc1NC(=O)c1ccc2c(c1C(=O)NC(C)(C)CS(C)(=O)=O)OC(F)(F)O2 [compound 293]	A (100)	A (100)
CSCC(C)(C)NC(=O)c1c(I)cccc1C(=O)Nc1ccc(Oc2cccc(C#N)c2)cc1C [compound 475]	A (100)	A (100)
CC[S+]([O-])CCCC(C)NC(=O)c1c(I)cccc1C(=O)Nc1ccc(C(F)(C(F)(F)F)C(F)(F)F)cc1C (stereo not shown) [compound 202]	A (100)	A (100)
CCN(CCC[S+](C)[O-])C(=O)c1c(F)cccc1C(=O)Nc1ccc(C(F)(C(F)(F)F)C(F)(F)F)cc1C (stereo not shown) [2-13]	A (100)	A (100)
Cc1nnc(SCC(C)NC(=O)c2c(I)cccc2C(=O)Nc2ccc(C(F)(C(F)(F)F)C(F)(F)F)cc2C)s1 (stereo not shown) [compound 353]	A (100)	A (100)
CCCCSCC(C)NC(=O)c1c(I)cccc1C(=O)Nc1ccc(OC(F)(F)F)cc1C (stereo not shown) [compound 63]	A (100)	A (100)
CSCC(C)NC(=O)c1cc2ccccc2cc1C(=O)Nc1ccc(C(F)(C(F)(F)F)C(F)(F)F)cc1C (stereo not shown) [compound 332]	A (100)	A (100)
CSCCCC(C)NC(=O)c1cccc(Cl)c1C(=O)Nc1ccc(C(F)(C(F)(F)F)C(F)(F)F)cc1C (stereo not shown) [compound 155]	A (100)	A (100)
Cc1cc(C(F)(C(F)(F)F)C(F)(F)F)ccc1NC(=O)c1cccc(Cl)c1C(=O)NC(C)(C)CS(C)(=O)=O [compound 171]	A (100)	A (100)
Cc1cc(C(F)(C(F)(F)F)C(F)(F)F)ccc1NC(=O)c1cccc(I)c1C(=O)NC(C)CSc1nc2ccccc2s1 (stereo not shown) [compound 319]	A (100)	A (100)
Cc1cc(C(F)(C(F)(F)F)C(F)(F)F)ccc1NC(=O)c1cccc(I)c1C(=O)NC(C)CSC(=S)N(C)C (stereo not shown) [compound 302]	A (100)	A (100)
Cc1cc(C(F)(F)C(F)(F)F)ccc1NC(=O)c1cccc(I)c1C(=O)NC(C)CSC1CCCCC1 (stereo not shown) [compound 85]	A (100)	A (100)
CCS(=O)(=O)CC(C)(C)NC(=O)c1c(I)cccc1C(=O)Nc1ccc(OC(F)(F)F)cc1C [compound 251]	A (100)	
CSCC(C)NC(=O)c1ccccc1C(=O)Nc1ccc(C(F)(F)C(F)(F)F)cc1C (stereo not shown) [compound 14]		A (100)
CSCC(C)NC(=O)c1c(F)cccc1C(=O)Nc1ccc(OC(F)F)cc1C (stereo not shown) [compound 13]		A (100)
CC(C)(CS(C)(=O)=O)NC(=O)c1c(F)cccc1C(=O)Nc1ccc(OC(F)(F)F)cc1Cl [compound 387]		A (100)
CSCC(C)NC(=O)c1ccc(Cl)c(Cl)c1C(=O)Nc1ccc(C(F)(C(F)(F)F)C(F)(F)F)cc1C (stereo not shown) [compound 42]		A (100)
CSCC(C)NC(=O)c1cccc(S(C)(=O)=O)c1C(=O)Nc1ccc(C(F)(C(F)(F)F)C(F)(F)F)cc1C (stereo not shown) [Compound No. 192, N^1-(4-Heptafluoroisopropyl-2-methylphenyl)-N^2-(1-methyl-2-methylthioethyl)-6-methylsulfonylphthalamide]		A (100)
COc1ccc(C(=O)Nc2ccc(C(F)(C(F)(F)F)C(F)(F)F)cc2C)c(C(=O)NC(C)CSC)c1Cl (stereo not shown) [compound 222]		A (100)
CCCCCCSCC(C)NC(=O)c1c(I)cccc1C(=O)Nc1ccc(C(F)(C(F)(F)F)C(F)(F)F)cc1C (stereo not shown) [compound 78]		A (100)
Cc1cc(C(F)(C(F)(F)F)C(F)(F)F)ccc1NC(=O)c1cccc(I)c1C(=O)NC1(CS(C)(=O)=O)CCCC1 [compound 447]		A (100)
